Assay results: ChEMBL document CHEMBL4270535, “Facile synthesis of vanillin-based novel bischalcones identifies one that induces apoptosis and displays synergy with Artemisinin in killing chloroquine resistant Plasmodium falciparum” (Eur J Med Chem, 2018)

Legend:
Plasmodium falciparum [1] = test: Antiplasmodial activity against synchronized ring stage of chloroquine-sensitive Plasmodium falciparum 3D7 infected in human erythrocytes after 48 hrs by SYBR Green 1 dye based fluorescence assay; type: functional, organism-based; settings: 3D7, 48 h
Plasmodium falciparum [2] = test: Antiplasmodial activity against synchronized ring stage of chloroquine-resistant Plasmodium falciparum INDO infected in human erythrocytes after 48 hrs by SYBR Green 1 dye based fluorescence assay; type: functional, organism-based
Plasmodium falciparum [3] = test: Antiplasmodial activity against synchronized ring stage of chloroquine-resistant Plasmodium falciparum Dd2 infected in human erythrocytes after 48 hrs by SYBR Green 1 dye based fluorescence assay; type: functional, organism-based; settings: Dd2, 48 h
[4] = Resistance index, ratio of IC50 for synchronized ring stage of chloroquine-resistant Plasmodium falciparum INDO infected in human erythrocytes to IC50 for synchronized ring stage of chloroquine-sensitive Plasmodium falciparum 3D7 infected in human erythrocytes; type: functional
[5] = Resistance index, ratio of IC50 for synchronized ring stage of chloroquine-resistant Plasmodium falciparum Dd2 infected in human erythrocytes to IC50 for synchronized ring stage of chloroquine-sensitive Plasmodium falciparum 3D7 infected in human erythrocytes; type: functional
[6] = Selectivity index, ratio of IC50 for human HeLa cells to IC50 for synchronized ring stage of chloroquine-sensitive Plasmodium falciparum 3D7 infected in human erythrocytes; type: toxicity, cell-based; settings: read-out: Ratio IC50
[7] = Selectivity index, ratio of IC50 for mouse L929 cells to IC50 for synchronized ring stage of chloroquine-sensitive Plasmodium falciparum 3D7 infected in human erythrocytes; type: toxicity, cell-based; settings: read-out: Ratio IC50

Structure (SMILES)	IC50 (Plasmodium falciparum [1]) [µM]	IC50 (Plasmodium falciparum [2]) [µM]	IC50 (Plasmodium falciparum [3]) [µM]	Ratio IC50 [4]	Ratio IC50 [5]	selectivity ratio [6]	selectivity ratio [7]
C=CCOc1c(OC)cc(/C=C/C(=O)c2ccc(Cl)cc2)cc1-c1cc(/C=C/C(=O)c2ccc(Cl)cc2)cc(OC)c1OCC=C	> 50	–	–	–	–	–	–
C=CCOc1c(OC)cc(/C=C/C(=O)c2ccc([N+](=O)[O-])cc2)cc1-c1cc(/C=C/C(=O)c2ccc([N+](=O)[O-])cc2)cc(OC)c1OCC=C	25	5	9.3	0.2	0.37	> 4	3.2
COc1cc(/C=C/C(=O)c2ccccc2)cc(-c2cc(/C=C/C(=O)c3ccccc3)cc(OC)c2OC)c1OC	9.3	3.7	3.7	0.4	0.4	12.4	1.1
C=CCOc1c(OC)cc(/C=C/C(=O)c2ccc(OC)cc2)cc1-c1cc(/C=C/C(=O)c2ccc(OC)cc2)cc(OC)c1OCC=C	57	–	–	–	–	–	–
C=CCOc1c(OC)cc(/C=C/C(=O)c2ccc(Br)cc2)cc1-c1cc(/C=C/C(=O)c2ccc(Br)cc2)cc(OC)c1OCC=C	> 50	–	–	–	–	–	–
C=CCOc1c(OC)cc(/C=C/C(=O)c2ccc3c(c2)OCO3)cc1-c1cc(/C=C/C(=O)c2ccc3c(c2)OCO3)cc(OC)c1OCC=C	38	3.8	3.8	0.1	0.1	> 2.6	> 2.6
C=CCOc1c(OC)cc(/C=C/C(=O)c2ccc(OCCC)cc2)cc1-c1cc(/C=C/C(=O)c2ccc(OCCC)cc2)cc(OC)c1OCC=C	1.5	12.2	11.6	8.1	7.7	> 66.7	> 66.7
